From patent US20020192262A1, “1'-Acetoxychavicol acetate for tuberculosis treatment” (National Science and Technology Development Agency, priority 2001, published 2002)

Tests used:
[1] = system: tumor and cancer in mice experimental models; conditions: skin, bile duct, esophageal, large intestinal, oral cancer and liver tumor models; cited from earlier work
Pseudomonas aeruginosa = conditions: cited from earlier work
[2] = system: dermatophytic fungi such as Trichophyton mentagrophytes, Trichophyton rubrum, Trichophyton concentricum and Epidermophyton floccosum; conditions: cited from earlier work
Staphylococcus aureus = conditions: cited from earlier work
xanthine oxidase = xanthine oxidase (Homo sapiens, UniProt P47989); conditions: cited from earlier work
[3] = system: Rhizopus stolonifer, Penicillium expansum, Aspergilus niger; conditions: compared with MIC for dermatophytic fungi; cited from earlier work
[4] = system: Mycobacterium tuberculosis H37Ra strain (ATCC 25166); experiment: Microplate Alamar Blue assay (MABA), growth inhibition; assay type: cell-based; conditions: two-fold serial dilution from 50 to 0.025 μg/ml, read-out: MIC against M. tuberculosis H37Ra
Protocol: Mycobacterium tuberculosis H37Ra strain (ATCC 25166) was grown in 100 ml of Middlebrook 7H9 broth supplemented with 0.2% glycerol, 1.0 gm/L of casitone, 10% OADC, and 0.05% Tween 80. The complete medium was referred to as 7H9GC-Tween. The bacteria were incubated in 500-ml flasks on a rotary shaker at 200 rpm and 37° C. until the optical density at 550 nm reached 0.4-0.5. The bacteria were washed twice with phosphate-buffered saline and then suspended in 20 ml of phosphate-buffered saline. The suspension was passed through an 8-μm-pore-size filter to eliminate clumps. The number of the bacteria in the filtrates was counted by plating the bacteria in Middlebrook 7H10 agar. The filtrates were stored at −80° C.
Anti-tuberculous testing was performed in a 96-well microplate as previously described (Collins, L. and Franzblau, S. G. 1997). […]
The plates were sealed with Parafilm and were incubated at 37° C. for 5 days. […] The results were recorded at 24 h post-reagent addition.
A blue color in the well was interpreted as no growth, reflecting the activity of the test compound in the well. A pink color was scored as growth and reflected the lack of activity of the test compound. A few wells appeared violet after 24 h of incubation, but they invariably changed to pink after another day of incubation and thus were scored as growth (while the adjacent blue wells remained blue). […]

Ebstein-Barr virus = conditions: cited from earlier work
Bacillus subtilis = conditions: cited from earlier work
[5] = system: nitric oxide synthase production in RAW264 (mice macrophage) cell line; conditions: concentration of 250 (unit not given), cited from earlier work
Vero cells = conditions: African green monkey, 3 days
Candida albicans = conditions: cited from earlier work
NADPH oxidase = conditions: cited from earlier work
Escherichia coli = conditions: cited from earlier work

Sequence of xanthine oxidase (P47989 whole entry, species assumed): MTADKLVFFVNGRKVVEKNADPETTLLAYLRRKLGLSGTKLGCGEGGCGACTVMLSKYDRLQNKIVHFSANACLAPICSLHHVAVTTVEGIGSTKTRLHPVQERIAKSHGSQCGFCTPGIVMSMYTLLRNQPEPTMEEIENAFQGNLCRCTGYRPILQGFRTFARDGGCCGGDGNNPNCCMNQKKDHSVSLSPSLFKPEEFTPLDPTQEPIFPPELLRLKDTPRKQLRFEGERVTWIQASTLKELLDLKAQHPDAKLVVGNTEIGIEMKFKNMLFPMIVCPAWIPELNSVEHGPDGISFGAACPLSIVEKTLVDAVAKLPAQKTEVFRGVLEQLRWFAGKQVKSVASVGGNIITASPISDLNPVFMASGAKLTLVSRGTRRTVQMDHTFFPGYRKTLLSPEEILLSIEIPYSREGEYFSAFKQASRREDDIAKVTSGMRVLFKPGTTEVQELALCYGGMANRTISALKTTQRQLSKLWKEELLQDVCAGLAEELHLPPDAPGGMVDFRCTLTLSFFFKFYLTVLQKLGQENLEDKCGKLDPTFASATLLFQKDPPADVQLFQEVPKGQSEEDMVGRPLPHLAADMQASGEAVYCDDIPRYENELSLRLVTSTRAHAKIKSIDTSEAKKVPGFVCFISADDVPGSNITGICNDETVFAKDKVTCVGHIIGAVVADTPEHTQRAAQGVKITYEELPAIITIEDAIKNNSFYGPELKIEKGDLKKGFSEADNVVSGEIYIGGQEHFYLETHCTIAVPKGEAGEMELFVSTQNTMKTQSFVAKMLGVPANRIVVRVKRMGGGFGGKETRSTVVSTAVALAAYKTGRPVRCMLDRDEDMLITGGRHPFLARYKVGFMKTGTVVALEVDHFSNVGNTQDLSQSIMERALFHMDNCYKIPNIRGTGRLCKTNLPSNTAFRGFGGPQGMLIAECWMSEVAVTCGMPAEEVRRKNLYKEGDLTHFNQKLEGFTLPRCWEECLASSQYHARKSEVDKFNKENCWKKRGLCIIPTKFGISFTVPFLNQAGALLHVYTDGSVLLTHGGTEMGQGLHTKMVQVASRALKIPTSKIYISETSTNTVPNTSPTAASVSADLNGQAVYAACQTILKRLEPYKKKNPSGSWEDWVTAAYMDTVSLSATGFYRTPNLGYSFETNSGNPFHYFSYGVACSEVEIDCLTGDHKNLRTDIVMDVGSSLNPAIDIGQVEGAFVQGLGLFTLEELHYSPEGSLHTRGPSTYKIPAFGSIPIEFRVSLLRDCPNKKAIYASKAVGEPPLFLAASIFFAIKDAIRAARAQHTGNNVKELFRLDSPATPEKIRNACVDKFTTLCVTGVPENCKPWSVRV

What does the source list for `C=CC(OC(C)=O)c1ccc(OC(C)=O)cc1` (stereo not drawn) [1′-acetoxychavicol acetate, 1′-Acetoxychavicol acetate]?
inhibition of tumor and cancer formation [1]: can inhibit the formation of many tumor and cancer; growth inhibition of Pseudomonas aeruginosa (Pseudomonas aeruginosa): could not inhibit the growth; minimal inhibitory concentrations (MIC) against dermatophytic fungi [2]: 50 to 250 µg/mL; growth inhibition of Staphylococcus aureus (Staphylococcus aureus): could slightly inhibit the growth; inhibition of the function of xanthine oxidase (xanthine oxidase): could inhibit the function; growth inhibition of Rhizopus stolonifer, Penicillium expansum, Aspergilus niger [3]: inhibited the growth of several other fungi; MIC [4]: 0.1 µg/mL; inhibition of activation of tumor virus (Ebstein-Barr virus): could inhibit the activation of tumor virus; growth inhibition of Bacillus subtilis (Bacillus subtilis): could not inhibit the growth; inhibition of nitric oxide synthase production, lipopolysaccharide stimulated ([5]; 100 ng/ml bacterial lipopolysaccharide): could completely inhibit; inhibition of nitric oxide synthase production, interferon-γ stimulated ([5]; 100 ng/ml interferon-γ): 80%; toxic level against Vero cells (concentration giving less than half the viable cells of negative control) (Vero cells): 2.0 µg/mL; growth inhibition of Candida albicans (Candida albicans): could not inhibit the growth; inhibition of the function of NADPH oxidase (NADPH oxidase): could inhibit the function; growth inhibition of Escherichia coli (Escherichia coli): could not inhibit the growth
